For one experiment, the target named is Misshapen-like kinase 1 (Homo sapiens, UniProt Q8N4C8). Kind of experiment: Selectivity interaction (SelectScreen profiling (Invitrogen)) EUB0000607a MINK1. The following applies: at 2 µM.
For experiment [1], the target named is Receptor tyrosine-protein kinase erbB-2 (Homo sapiens, UniProt P04626). The following applies: at 10 µM.
The target of experiment [2] is Casein kinase I isoform epsilon (Homo sapiens, UniProt P49674). Kind of experiment: Selectivity interaction (KinomeScan (DiscoverX)) EUB0000229b CSNK1E. The following applies: at 10 µM.
Experiment [3] concerns the target Ribosomal protein S6 kinase alpha-5 (Homo sapiens) (UniProt O75582). Nature of the experiment: Selectivity interaction (Millipore kinase profiler) EUB0000124b RPS6KA5. As to conditions: at 10 µM.
Experiment [4] concerns the target T1, Mitogen-activated protein kinase kinase kinase 5 (Homo sapiens) (UniProt Q99683).
T1 sequence (whole entry): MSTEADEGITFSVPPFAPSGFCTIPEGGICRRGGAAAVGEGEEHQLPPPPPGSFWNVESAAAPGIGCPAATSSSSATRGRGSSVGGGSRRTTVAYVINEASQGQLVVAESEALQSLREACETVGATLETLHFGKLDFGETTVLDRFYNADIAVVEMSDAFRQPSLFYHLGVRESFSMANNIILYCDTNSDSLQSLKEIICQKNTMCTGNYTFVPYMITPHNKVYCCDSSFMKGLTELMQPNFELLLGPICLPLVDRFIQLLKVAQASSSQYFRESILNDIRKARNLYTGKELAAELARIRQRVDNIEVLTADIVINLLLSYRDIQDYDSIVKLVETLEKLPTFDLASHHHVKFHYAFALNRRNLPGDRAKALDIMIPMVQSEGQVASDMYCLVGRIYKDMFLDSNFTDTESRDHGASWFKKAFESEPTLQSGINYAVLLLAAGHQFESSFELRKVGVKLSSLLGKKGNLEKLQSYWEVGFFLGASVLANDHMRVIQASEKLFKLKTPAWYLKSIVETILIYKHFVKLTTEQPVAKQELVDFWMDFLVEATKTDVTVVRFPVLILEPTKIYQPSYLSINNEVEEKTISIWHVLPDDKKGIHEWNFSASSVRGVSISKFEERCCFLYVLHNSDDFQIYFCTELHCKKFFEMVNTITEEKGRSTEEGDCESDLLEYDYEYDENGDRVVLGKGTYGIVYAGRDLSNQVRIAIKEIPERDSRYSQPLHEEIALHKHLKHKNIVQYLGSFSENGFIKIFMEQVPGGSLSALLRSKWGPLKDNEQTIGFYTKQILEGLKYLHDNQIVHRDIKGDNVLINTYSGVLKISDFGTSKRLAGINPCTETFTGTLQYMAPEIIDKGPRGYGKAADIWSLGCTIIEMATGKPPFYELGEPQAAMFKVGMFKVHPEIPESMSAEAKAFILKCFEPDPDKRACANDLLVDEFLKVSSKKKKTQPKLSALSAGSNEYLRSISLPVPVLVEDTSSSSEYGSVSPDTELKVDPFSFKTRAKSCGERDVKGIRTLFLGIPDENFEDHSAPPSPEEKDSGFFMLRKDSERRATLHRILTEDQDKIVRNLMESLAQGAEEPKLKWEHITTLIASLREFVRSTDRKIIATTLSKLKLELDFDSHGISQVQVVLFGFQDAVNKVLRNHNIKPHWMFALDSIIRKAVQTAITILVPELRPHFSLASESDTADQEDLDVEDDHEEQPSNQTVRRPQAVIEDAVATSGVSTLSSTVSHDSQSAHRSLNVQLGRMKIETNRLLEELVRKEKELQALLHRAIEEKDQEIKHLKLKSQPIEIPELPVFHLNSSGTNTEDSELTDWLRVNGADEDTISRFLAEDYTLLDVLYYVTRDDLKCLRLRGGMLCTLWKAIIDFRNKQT
Kind of experiment: Selectivity interaction (KinomeScan (DiscoverX)) EUB0001049a MAP3K5. The following applies: at 1 µM.

Another experiment deals with SRSF protein kinase 1 (Homo sapiens, UniProt Q96SB4). Kind of experiment: Selectivity interaction (KinomeScan (DiscoverX)) EUB0000695a SRPK1. As to conditions: at 100 nM.
Experiment [5] deals with Dual specificity protein kinase CLK1 (Homo sapiens, UniProt P49759). Nature of the experiment: Selectivity interaction (Kinase panel (DSF assay)) EUB0001489b CLK1.
Experiment [6] concerns the target Insulin-like growth factor 1 receptor (Homo sapiens, UniProt P08069). Nature of the experiment: Selectivity interaction (KinomeScan (DiscoverX)) EUB0000595a IGF1R. The following applies: at 10 µM.
Experiment [7] deals with T2, Serine/threonine-protein kinase LATS2 (Homo sapiens) (UniProt Q9NRM7).
T2 sequence (whole entry): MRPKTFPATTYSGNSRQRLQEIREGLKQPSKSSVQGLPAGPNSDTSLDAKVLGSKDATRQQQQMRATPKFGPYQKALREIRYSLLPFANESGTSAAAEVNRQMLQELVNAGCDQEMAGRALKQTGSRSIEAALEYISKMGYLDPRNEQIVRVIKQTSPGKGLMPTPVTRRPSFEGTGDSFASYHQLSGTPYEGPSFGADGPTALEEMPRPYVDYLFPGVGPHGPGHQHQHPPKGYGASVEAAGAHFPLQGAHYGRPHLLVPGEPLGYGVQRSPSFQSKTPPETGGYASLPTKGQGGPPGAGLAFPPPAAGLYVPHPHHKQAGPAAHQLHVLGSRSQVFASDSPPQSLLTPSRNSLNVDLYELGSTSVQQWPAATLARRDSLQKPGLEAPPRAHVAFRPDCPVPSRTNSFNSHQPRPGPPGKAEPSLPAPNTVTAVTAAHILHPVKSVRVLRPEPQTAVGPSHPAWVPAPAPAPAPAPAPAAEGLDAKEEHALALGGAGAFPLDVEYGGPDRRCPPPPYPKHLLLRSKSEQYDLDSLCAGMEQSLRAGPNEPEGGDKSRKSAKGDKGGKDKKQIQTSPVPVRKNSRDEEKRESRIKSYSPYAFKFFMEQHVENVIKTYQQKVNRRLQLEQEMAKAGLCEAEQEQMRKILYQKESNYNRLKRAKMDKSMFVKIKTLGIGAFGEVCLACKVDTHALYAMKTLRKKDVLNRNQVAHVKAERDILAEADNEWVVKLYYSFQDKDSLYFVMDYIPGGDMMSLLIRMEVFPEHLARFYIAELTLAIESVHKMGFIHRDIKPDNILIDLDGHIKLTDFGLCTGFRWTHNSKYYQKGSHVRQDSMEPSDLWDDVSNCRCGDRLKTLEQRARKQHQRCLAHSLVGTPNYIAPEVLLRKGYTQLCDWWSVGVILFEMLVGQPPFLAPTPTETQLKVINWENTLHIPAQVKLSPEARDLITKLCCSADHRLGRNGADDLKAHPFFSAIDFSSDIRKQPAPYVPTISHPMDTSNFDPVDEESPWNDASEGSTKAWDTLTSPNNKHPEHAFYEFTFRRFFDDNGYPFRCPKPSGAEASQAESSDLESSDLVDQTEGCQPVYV
The following applies: at 10 µM.

SMILES strings stand for the structures.

Sequence of Receptor tyrosine-protein kinase erbB-2 (P04626 whole entry, canonical isoform): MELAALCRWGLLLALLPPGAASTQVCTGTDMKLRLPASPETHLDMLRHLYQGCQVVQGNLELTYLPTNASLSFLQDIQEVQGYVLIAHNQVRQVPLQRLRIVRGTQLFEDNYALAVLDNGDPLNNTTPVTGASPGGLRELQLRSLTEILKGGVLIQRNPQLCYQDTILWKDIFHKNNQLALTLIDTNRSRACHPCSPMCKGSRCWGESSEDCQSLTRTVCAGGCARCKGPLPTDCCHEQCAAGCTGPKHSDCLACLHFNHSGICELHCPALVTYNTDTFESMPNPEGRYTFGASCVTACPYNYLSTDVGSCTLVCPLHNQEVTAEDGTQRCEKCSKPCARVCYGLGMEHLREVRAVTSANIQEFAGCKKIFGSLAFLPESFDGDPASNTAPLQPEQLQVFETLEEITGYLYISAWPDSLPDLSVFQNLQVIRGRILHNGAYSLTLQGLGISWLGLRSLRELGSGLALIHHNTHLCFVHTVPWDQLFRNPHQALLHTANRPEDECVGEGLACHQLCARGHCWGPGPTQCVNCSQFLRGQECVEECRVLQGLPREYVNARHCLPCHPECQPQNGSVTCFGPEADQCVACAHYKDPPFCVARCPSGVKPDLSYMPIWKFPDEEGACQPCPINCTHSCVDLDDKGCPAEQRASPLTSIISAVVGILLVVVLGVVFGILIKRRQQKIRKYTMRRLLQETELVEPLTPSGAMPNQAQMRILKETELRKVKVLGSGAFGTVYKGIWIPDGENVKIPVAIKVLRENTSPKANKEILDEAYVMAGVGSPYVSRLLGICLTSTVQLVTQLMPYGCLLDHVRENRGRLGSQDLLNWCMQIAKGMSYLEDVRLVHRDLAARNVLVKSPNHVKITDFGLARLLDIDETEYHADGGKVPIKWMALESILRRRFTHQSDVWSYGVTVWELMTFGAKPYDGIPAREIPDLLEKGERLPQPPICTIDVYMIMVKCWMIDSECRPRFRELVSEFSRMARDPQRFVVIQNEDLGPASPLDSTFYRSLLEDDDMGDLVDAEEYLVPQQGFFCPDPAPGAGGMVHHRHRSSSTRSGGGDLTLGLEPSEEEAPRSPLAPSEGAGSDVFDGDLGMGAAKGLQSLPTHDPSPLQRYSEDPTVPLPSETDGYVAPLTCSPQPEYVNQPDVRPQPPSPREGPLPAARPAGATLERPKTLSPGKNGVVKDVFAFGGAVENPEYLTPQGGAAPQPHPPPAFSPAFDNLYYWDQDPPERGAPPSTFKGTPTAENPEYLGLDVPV
Sequence of Casein kinase I isoform epsilon (P49674 whole entry, looked up, canonical isoform): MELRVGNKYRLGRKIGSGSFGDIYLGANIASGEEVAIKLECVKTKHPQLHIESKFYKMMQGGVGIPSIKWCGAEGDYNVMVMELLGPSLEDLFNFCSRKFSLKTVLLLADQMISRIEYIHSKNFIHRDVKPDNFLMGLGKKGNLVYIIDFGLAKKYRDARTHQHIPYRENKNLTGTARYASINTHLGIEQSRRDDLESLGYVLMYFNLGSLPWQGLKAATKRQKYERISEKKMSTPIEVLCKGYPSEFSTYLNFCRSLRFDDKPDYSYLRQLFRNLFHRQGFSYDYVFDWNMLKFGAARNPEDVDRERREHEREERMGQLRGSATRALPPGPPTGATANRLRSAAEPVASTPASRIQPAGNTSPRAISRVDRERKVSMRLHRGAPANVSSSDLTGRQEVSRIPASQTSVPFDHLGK
Sequence of Insulin-like growth factor 1 receptor (P08069 31-736 limits assumed): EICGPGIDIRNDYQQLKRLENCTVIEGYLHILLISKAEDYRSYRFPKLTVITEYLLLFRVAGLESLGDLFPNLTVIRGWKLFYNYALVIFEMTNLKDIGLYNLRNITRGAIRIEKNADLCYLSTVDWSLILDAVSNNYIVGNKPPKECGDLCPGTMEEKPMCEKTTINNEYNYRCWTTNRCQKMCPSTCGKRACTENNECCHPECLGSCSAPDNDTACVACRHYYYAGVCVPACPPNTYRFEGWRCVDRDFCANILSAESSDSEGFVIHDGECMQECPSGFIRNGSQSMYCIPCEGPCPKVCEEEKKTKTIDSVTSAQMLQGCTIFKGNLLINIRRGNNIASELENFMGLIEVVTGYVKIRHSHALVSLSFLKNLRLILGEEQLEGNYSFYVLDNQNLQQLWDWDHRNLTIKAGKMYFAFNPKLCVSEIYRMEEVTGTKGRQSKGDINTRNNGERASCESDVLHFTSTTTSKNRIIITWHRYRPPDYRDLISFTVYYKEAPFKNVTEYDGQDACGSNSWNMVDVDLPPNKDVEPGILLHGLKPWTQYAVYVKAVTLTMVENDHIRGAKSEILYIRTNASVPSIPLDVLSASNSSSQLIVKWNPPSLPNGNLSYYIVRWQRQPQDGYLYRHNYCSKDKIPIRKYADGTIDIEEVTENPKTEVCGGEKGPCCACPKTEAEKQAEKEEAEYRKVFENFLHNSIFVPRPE
Sequence of Insulin-like growth factor 1 receptor (P08069 741-1367 limits assumed): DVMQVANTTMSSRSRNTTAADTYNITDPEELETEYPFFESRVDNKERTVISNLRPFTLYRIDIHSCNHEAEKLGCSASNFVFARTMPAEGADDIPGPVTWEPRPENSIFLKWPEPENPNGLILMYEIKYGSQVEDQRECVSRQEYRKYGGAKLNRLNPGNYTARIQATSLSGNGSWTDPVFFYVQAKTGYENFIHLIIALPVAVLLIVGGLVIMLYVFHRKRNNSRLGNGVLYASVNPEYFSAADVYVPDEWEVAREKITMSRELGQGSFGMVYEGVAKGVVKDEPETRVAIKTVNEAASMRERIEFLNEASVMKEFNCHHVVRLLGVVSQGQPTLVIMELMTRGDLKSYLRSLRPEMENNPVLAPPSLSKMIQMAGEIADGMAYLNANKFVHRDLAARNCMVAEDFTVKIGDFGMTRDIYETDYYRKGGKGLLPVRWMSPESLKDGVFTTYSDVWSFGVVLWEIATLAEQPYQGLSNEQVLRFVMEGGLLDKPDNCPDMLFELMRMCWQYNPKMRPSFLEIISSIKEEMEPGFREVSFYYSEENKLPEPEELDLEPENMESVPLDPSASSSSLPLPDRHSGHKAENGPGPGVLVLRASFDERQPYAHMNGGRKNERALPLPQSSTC
Sequence of Misshapen-like kinase 1 (Q8N4C8 whole entry, looked up): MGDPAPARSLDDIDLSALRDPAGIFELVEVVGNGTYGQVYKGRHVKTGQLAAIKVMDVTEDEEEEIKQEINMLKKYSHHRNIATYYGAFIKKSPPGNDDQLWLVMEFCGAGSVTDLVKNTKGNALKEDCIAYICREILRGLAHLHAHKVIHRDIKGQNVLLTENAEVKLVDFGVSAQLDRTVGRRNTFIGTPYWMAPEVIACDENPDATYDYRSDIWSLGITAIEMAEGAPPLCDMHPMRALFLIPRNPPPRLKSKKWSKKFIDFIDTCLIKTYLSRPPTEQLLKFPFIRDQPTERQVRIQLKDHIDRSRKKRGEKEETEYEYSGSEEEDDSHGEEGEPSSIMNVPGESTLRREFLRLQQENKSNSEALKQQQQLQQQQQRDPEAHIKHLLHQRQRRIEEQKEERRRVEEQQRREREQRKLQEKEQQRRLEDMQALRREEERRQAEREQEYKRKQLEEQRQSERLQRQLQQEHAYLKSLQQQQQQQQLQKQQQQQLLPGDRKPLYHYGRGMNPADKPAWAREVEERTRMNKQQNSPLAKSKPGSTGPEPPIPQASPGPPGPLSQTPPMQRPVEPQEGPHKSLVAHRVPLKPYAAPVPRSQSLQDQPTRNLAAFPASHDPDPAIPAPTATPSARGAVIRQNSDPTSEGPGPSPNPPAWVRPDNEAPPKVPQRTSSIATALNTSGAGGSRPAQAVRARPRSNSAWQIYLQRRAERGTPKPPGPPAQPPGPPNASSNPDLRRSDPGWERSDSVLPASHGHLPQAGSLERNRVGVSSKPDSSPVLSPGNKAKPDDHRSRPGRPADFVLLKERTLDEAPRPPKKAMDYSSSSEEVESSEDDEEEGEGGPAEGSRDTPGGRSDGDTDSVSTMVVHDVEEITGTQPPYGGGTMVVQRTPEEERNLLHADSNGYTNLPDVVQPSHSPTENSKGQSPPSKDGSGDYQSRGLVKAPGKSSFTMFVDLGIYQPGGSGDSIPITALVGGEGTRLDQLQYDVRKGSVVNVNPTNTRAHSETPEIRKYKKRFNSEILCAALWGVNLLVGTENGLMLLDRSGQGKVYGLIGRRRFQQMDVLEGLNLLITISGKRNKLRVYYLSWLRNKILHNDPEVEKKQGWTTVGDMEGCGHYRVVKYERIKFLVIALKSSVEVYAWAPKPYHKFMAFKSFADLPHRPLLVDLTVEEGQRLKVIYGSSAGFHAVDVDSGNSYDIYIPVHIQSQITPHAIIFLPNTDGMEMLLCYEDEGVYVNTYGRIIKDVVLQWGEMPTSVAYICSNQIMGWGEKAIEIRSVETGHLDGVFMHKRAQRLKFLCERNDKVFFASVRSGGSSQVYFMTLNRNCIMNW
Sequence of Dual specificity protein kinase CLK1 (P49759 whole entry, looked up): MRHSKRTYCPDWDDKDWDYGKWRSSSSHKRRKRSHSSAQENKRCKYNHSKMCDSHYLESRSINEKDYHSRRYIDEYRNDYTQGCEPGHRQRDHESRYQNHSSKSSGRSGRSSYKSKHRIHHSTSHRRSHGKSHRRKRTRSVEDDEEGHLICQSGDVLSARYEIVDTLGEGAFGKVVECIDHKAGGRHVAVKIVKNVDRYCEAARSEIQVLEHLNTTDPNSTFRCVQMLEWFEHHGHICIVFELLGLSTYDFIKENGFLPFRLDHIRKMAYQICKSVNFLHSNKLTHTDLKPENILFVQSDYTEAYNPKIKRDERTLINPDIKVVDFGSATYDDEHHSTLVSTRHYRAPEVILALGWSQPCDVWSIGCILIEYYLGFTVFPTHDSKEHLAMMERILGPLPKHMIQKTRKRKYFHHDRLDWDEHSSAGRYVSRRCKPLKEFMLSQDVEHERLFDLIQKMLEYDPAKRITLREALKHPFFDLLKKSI

The molecule `CNC(=O)Nc1ccc(-c2nc(N3CC4CCC(C3)O4)c3cnn(C4CCC5(CC4)OCCO5)c3n2)cc1` had a % of inhibition at Misshapen-like kinase 1 of 14%.
Consider `Cc1cc([C@@H](C)Nc2ccccc2C(=O)O)c2nc(N3CCOCC3)cc(=O)n2c1` [AZD-6482], for which the % of control in experiment [1] was 100%.
`COc1cc(N(C)c2ccnc3ccc(C(F)(F)F)cc23)cc(OC)c1OC` yielded a % binding in experiment [2] of 54%.
Take `CC(=O)Nc1cccc(-n2c(=O)n(C3CC3)c(=O)c3c(Nc4ccc(I)cc4F)n(C)c(=O)c(C)c32)c1`: the % of control in experiment [3] came out at 111%.
With `COc1cc(Nc2nc(C)cc(-c3cnn4nc(OC)ccc34)n2)cc(C(F)(F)F)c1`, in experiment [4], the % of control amounted to 80%.
As for `Cc1cc(F)c(C(=O)Nc2cccc(-c3nncn3C(C)C)n2)cc1-n1cnc(C2CC2)c1`, the % of control on SRSF protein kinase 1 was found to be 91%.
In experiment [5], `CN1CCN(C(=O)c2ccc3cc2OCCOCCNc2ccn4ncc-3c4n2)CC1` registered a dTM of 2.9 K.
Turning to `COCC(=O)NC/C=C/c1ccc2ncnc(Nc3ccc(Oc4ccc(C)nc4)c(C)c3)c2c1` [CP-724714], the % of control in [6] amounted to 83%; in experiment [7], 100%.

The values above are taken from ChEMBL document CHEMBL5465560, “Selectivity Literature for EUbOPEN Chemogenomic Library” (2024).
